From patent US9169268B2, “Use of 7-alkoxy fangchinoline compounds in preventing, alleviating and/or treating depression” (Peking University, priority 2012, dated 2015)

How the values were obtained:
[1] = biological target: GSK-3β (Homo sapiens, UniProt P49841); assay: GSK-3β activity assay (Z′-LYTE); type: biochemical; details: n = 3; read-out: Mean EC50 in the inhibition of GSK-3β activity
Procedure: The GSK-3β phosphorylation level was determined by using a Z′-LYTE assay (Life Technologies). The assay was performed in a 384-well plate. The wells of the testing plate were divided into blank control wells (without the enzyme), enzyme control wells (without the testing substance), and testing wells (with the enzyme and the testing substance at various concentrations). The inhibition rate of the testing substance is expressed as: inhibition %=(E−S)/(E−B)×100, wherein E is the average emission ratio of enzyme control wells; B is the average emission ratio of blank control wells; S is the emission ratio of the testing sample wells. The median effective concentration of each compound (EC50 μM) was calculated by using the resultant inhibition rate of each sample at various concentrations.

[2] = Serum AST and ALT in mice after 14 days of intragastric administration; type: in vivo
Procedure: Blood was collected from epicanthal, stood at room temperature for about 2 hours, and centrifuged for 12 minutes at 3000 r/min after coagulation. The serum was removed and centrifuged again. Alanine transaminase (ALT) and aspartate transaminase (AST) levels were determined

[3] = system: chronic unpredictable stress (CUS) model in rats; assay: Autonomous movement in CUS model in rats; type: in vivo; details: 7 days
Procedure: (§1) The chronic unpredictable stress model is usually used as a depression model. The experimental method is as follows. Stimulation includes forced swimming (10° C., 6 min), tail clamping (1 cm from the tail tip, 1 min), water deprivation (24 h), fasting (24 h), isolated housing (24 h), tail suspension (1 h), immobility (2 h), high-speed horizontal oscillation (120 times/min, 1 h), foot shock for 45 minutes (mean 1 mA, time course 1 s, once/min). These stressors were randomly scheduled over a one-week period and repeated throughout the 23-day experiment. The non-stress control group was housed under normal conditions. Time: between 9:00 a.m. and 2:00 p.m. Since Day 15, the animals in each group were daily intragastrically administered with the subject medicament and double distilled water based on body weight (blank group and CUS model group) respectively, 60 minutes before the stress. […] Behavior and sleep electroencephalogram analyses were carried out on Day 22-23 of the stress. On Day 21, 60 minutes after the final administration, a sucrose solution intake test was carried out and sleep electroencephalogram was recorded simultaneously. On Day 22, EPM and forced swimming tests were carried out.

[4] = system: chronic unpredictable stress (CUS) model in rats; assay: Sucrose solution preference in CUS model in rats; type: in vivo; details: 7 days
Procedure: as §1

[5] = system: chronic unpredictable stress (CUS) model in rats; assay: Elevated plus-maze (EPM) anxiety test in CUS model in rats; type: in vivo
Procedure: as §1

[6] = mouse serum, 30 mg/kg/day intragastric, 14 days
[7] = mouse serum, 60 mg/kg/day intragastric, 14 days

Sequence of GSK-3β (P49841 whole entry): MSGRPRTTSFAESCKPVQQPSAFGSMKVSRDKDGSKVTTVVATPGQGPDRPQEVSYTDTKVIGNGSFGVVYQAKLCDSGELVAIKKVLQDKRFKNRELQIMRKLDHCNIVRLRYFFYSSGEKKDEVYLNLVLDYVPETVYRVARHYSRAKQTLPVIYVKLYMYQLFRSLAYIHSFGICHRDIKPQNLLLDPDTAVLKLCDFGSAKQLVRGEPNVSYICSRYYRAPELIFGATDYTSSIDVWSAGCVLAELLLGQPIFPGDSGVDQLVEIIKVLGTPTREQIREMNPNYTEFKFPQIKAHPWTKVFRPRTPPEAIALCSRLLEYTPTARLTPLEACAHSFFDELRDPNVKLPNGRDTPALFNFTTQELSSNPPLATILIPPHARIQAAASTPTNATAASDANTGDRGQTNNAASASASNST

## COc1ccc2cc1Oc1ccc(cc1)CC1c3cc(c(OC)cc3CCN1C)Oc1c(OC(C)C)c(OC)cc3c1C(C2)N(C)CC3 (stereo not shown) [Compound 8, 7-isopropoxy fangchinoline]
[1]
  EC50: 1.35 µM
[2]; mouse, in vivo, 60 mg/kg/day
  ALT: 80.1 ± 21.3 U/L
  AST: 89.2 ± 16.7 U/L
[3]; 7.5 mg/kg intragastric daily
  Autonomous movement Distance: 9968.41 ± 965.52^##,$$ mm
  Autonomous movement Speed: 33.22 ± 2.64^##,$$ mm/second
[3]; 15 mg/kg intragastric daily
  Autonomous movement Distance: 12194.23 ± 887.65^##,$$ mm
  Autonomous movement Speed: 40.64 ± 4.02^##,$$ mm/second
[3]; 30 mg/kg intragastric daily
  Autonomous movement Distance: 13053.78 ± 1005.46^##,$$ mm
  Autonomous movement Speed: 43.51 ± 5.36^##,$$ mm/second
[4]; 7.5 mg/kg intragastric daily
  Sucrose solution preference: 80.5 ± 3.6 %
[4]; 15 mg/kg intragastric daily
  Sucrose solution preference: 84.7 ± 3.2^##,$ %
[4]; 30 mg/kg intragastric daily
  Sucrose solution preference: 90.1 ± 3.8^##,$$ %

## COc1ccc2cc1Oc1ccc(cc1)C[C@H]1c3cc(c(OC)cc3CCN1C)Oc1c(OC)c(OC)cc3c1[C@H](C2)N(C)CC3 [tetrandrine, reference compound]
[1]
  EC50: 9.02 µM
[2]; mice, 30 mg/kg intragastric, 14 consecutive days
  AST activity and the AST/ALT ratio: evidently enhanced
[2]; mice, 60 mg/kg intragastric, 14 consecutive days
  change in AST activity, ALT activity and the ratio thereof (AST/ALT) in blood serum: all evidently enhanced
[2]; [6]
  ALT: 83.8 ± 15.9 U/L
  AST: 204.8 ± 21.8 U/L
  AST/ALT: 2.44 ± 0.21
[2]; [7]
  ALT: 113.2 ± 20.6 U/L
  AST: 205.6 ± 22.8 U/L
  AST/ALT: 1.82 ± 0.26
[3]; 7.5 mg/kg intragastric daily
  Autonomous movement Distance: 1369.54 ± 532.47 mm
  Autonomous movement Speed: 4.57 ± 1.85 mm/second
[3]; 15 mg/kg intragastric daily
  Autonomous movement Distance: 1124.37 ± 504.85 mm
  Autonomous movement Speed: 3.75 ± 1.98 mm/second
[3]; 30 mg/kg intragastric daily
  Autonomous movement Distance: 1027.36 ± 456.76 mm
  Autonomous movement Speed: 3.42 ± 1.33 mm/second
[3]; 60 mg/kg intragastric daily
  Autonomous movement Distance: 1285.41 ± 401.24 mm
  Autonomous movement Speed: 4.28 ± 1.56 mm/second
[4]; 7.5 mg/kg intragastric daily
  Sucrose solution preference: 55.4 ± 3.2%
[4]; 15 mg/kg intragastric daily
  Sucrose solution preference: 52.9 ± 3.7%
[4]; 30 mg/kg intragastric daily
  Sucrose solution preference: 67.7 ± 3.3 %
[4]; 60 mg/kg intragastric daily
  Sucrose solution preference: 70.2 ± 4.6 %
[5]; 7.5 mg/kg intragastric daily
  Percentage of entries into open arms relative to total entries into arms: 38.0 ± 2.3%
  Percentage of residence time in open arms: 42.1 ± 3.7%
[5]; 15 mg/kg intragastric daily
  Percentage of entries into open arms relative to total entries into arms: 39.5 ± 3.0%
  Percentage of residence time in open arms: 40.6 ± 4.8%
[5]; 30 mg/kg intragastric daily
  Percentage of entries into open arms relative to total entries into arms: 43.8 ± 3.2%
  Percentage of residence time in open arms: 41.3 ± 3.0%
[5]; 60 mg/kg intragastric daily
  Percentage of entries into open arms relative to total entries into arms: 46.2 ± 2.9 %
  Percentage of residence time in open arms: 42.8 ± 3.5%

## COc1cc2c3cc1Oc1c(OC)c(OC)cc4c1[C@@H](Cc1ccc(O)c(c1)Oc1ccc(cc1)C[C@@H]3N(C)CC2)N(C)CC4 [berbamine, reference compound]
[1]
  EC50: > 10 µM
[3]; 30 mg/kg intragastric daily
  Autonomous movement Distance: 1387.56 ± 584.24 mm
  Autonomous movement Speed: 4.63 ± 1.49 mm/second
[3]; 60 mg/kg intragastric daily
  Autonomous movement Distance: 1053.45 ± 476.33 mm
  Autonomous movement Speed: 3.51 ± 1.65 mm/second
[4]; 30 mg/kg intragastric daily
  Sucrose solution preference: 55.05 ± 3.06%
[4]; 60 mg/kg intragastric daily
  Sucrose solution preference: 49.56 ± 4.27%
[5]; 30 mg/kg intragastric daily
  Percentage of entries into open arms relative to total entries into arms: 38.3 ± 1.9%
  Percentage of residence time in open arms: 41.0 ± 3.0%
[5]; 60 mg/kg intragastric daily
  Percentage of entries into open arms relative to total entries into arms: 37.5 ± 1.6%
  Percentage of residence time in open arms: 39.6 ± 4.2%
